Reference: US8679859B2, “Method for functionalizing materials and devices comprising such materials” (State of Oregon by and through the State Board of Higher …, priority 2007, dated 2014)

What was measured:
peanut agglutinin (PNA) = target: T1, peanut agglutinin (PNA) (Arachis hypogaea, UniProt P02872); assay: Carbohydrate microarray on PEO-coated glass slides, fluorescence-tagged lectin binding; conditions: lectin 10 μg/ml, FIG. 30
T1 construct: purchased Molecular Probes
T1 sequence (P02872 24-273): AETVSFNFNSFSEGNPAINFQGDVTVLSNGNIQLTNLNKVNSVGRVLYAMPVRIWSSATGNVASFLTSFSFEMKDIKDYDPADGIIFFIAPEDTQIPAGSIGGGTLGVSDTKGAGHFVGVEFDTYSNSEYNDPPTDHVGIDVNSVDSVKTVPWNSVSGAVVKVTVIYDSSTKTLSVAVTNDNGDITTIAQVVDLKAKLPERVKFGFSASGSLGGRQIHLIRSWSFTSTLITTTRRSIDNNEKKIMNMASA

soybean agglutinin (SBA) = soybean agglutinin (SBA) (Glycine max, UniProt P05046); assay: as above; conditions: lectin 10 μg/ml, FIG. 32
Chain of soybean agglutinin (SBA) (P05046 33-285): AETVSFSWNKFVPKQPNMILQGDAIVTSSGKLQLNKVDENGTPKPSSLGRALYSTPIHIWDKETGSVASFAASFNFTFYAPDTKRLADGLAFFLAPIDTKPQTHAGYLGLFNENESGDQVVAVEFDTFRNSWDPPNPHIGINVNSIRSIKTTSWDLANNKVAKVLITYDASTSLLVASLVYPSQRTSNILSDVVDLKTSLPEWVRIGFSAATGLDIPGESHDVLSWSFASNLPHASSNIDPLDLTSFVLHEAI
Experimental: The slides were subsequently irradiated under UV (7 min), and washed with PBS (pH 7.4) containing 0.1% Tween® 20 for 30 minutes and then rinsed with water to remove excess carbohydrates. After drying under a stream of nitrogen, the slides were first incubated with a solution of PBS (pH 7.4) containing 0.1% Tween® 20 and 3% BSA (w/v) for 30 minutes, and then washed with PBS (pH 7.4) containing 0.1% Tween® 20 for 20 minutes. After drying under a stream of nitrogen, the slides were incubated with Alexa Fluo 647-labeled lectins (10 μg/ml) in PBS (pH 7.4) containing 0.1% Tween® 20 overnight at room temperature. The unbound lectins were removed by gentle shaking in the same buffer for 20 minutes, after which time the slides were scanned (Ex: 633 nm; Em: 650-750 nm).
Following array preparation, binding analysis of the surfaces was performed. Fluorescence-tagged lectins were used, and fluorescence imaging was employed in developing the array binding patterns. Four different lectins were assayed: Griffonia simplicifolia II (GSII), peanut agglutinin (PNA), jack bean lectin (Con A), and soybean agglutinin (SBA).

Con A = Con A (Canavalia ensiformis, UniProt P02866); conditions: free carbohydrate with Con A, isothermal microcalorimetry, Mandal et al.; cited from earlier work
jack bean lectin (Con A) = target: T2, jack bean lectin (Con A) (Canavalia ensiformis, UniProt P02866); assay: Carbohydrate microarray on PEO-coated glass slides, fluorescence-tagged lectin binding; conditions: lectin 10 μg/ml, FIG. 31
T2 construct: purchased Molecular Probes

| Molecule | PNA binding pattern on microarray (fluorescence) (peanut agglutinin (PNA)) | Con A binding pattern on microarray (fluorescence) (jack bean lectin (Con A)) | further results |
| --- | --- | --- | --- |
| [N-]=[N+]=Nc1c(F)c(F)c(C(=O)NCCOCCOCCO[C@@H]2OC(CO)[C@@H](O[C@@H]3OC(CO)[C@H](O)C(O)C3O)C(O)C2O)c(F)c1F (stereo partly drawn) [lactose] | primary ligand | – | SBA binding pattern on microarray (fluorescence) (soybean agglutinin (SBA)): showed binding |
| OC[C@H]1O[C@H](O[C@H]2[C@H](O)[C@@H](CO)OC(O)[C@H]2O)[C@@H](O)[C@@H](O)[C@@H]1O (stereo partly drawn) [α-1,3-mannobiose] | – | – | Ka (Con A): 142000 M⁻¹ |
| [N-]=[N+]=Nc1c(F)c(F)c(C(=O)NCCOCCOCCO[C@H]2OC(CO)[C@@H](O)C(O)C2O)c(F)c1F (stereo partly drawn) [α-D-mannoside structures] | – | specificity of Con A for binding | – |
| [N-]=[N+]=Nc1c(F)c(F)c(C(=O)NCCOCCOCCO[C@@H]2OC(CO)[C@@H](O)C(O)C2O)c(F)c1F (stereo partly drawn) [β-D-glucoside] | – | low binding | – |
| cellobiose | lesser amounts of binding | – | – |
